# Reference: PubChem BioAssay AID2060500 (Molecular Pharmacology Branch, DTP, NCI, 2025)
# Tested on: 596521-263-R-J1-PDC complex spheroids, viability % of control
# Assay: Anticancer human tumor 596521-263-R-J1-PDC patient-derived soft tissue sarcoma cell line growth inhibition [GQUAD]
# Details: for IC50: curve of first compound; for viability, T/C: stronger effect = lower value
# How it was run: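 Multi-cell-type spheroids of tumor cells with HUVEC and mesenchymal stem cells, treated with drug combinations. Concentrations descend in half-log steps from near clinical Cmax, or from 10 microM where Cmax is unknown; viability read-out.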
# 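Further: spheroids exposed to drugs for 7 days before viability reading.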
# 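Wherever viability, T/C is given: 100% = DMSO vehicle control viability.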
compound,measurement,setting,value
COc1ccc([C@@H](O)c2cc(-c3ncnc4cc(N5CCOCC5)ccc34)c(F)cc2Cl)nn1 + Cc1cnc(CNC(=O)c2c(=O)c3ccc(N4CCCN(C)CC4)nc3n3c2sc2ccccc23)cn1,IC50,second compound 0.0316 µM,8.52 µM
same,IC50,second compound 0.1 µM,1.51 µM
same,IC50,second compound 0.316 µM,1.69 µM
same,IC50,second compound 1 µM,0.635 µM
same,IC50,second compound 3.16 µM,0.294 µM
same,IC50,second compound 10 µM,< 0.0316 µM
same,"viability, T/C","second compound 0.0316 µM, first compound 0.0316 µM",99.7%
same,"viability, T/C","second compound 0.0316 µM, first compound 0.1 µM",80.7%
same,"viability, T/C","second compound 0.0316 µM, first compound 0.316 µM",79.4%
same,"viability, T/C","second compound 0.0316 µM, first compound 1 µM",77.2%
same,"viability, T/C","second compound 0.0316 µM, first compound 3.16 µM",49.2%
same,"viability, T/C","second compound 0.0316 µM, first compound 10 µM",51.3%
same,"viability, T/C","second compound 0.1 µM, first compound 0.0316 µM",92.3%
same,"viability, T/C","second compound 0.1 µM, first compound 0.1 µM",88.4%
same,"viability, T/C","second compound 0.1 µM, first compound 0.316 µM",67.5%
same,"viability, T/C","second compound 0.1 µM, first compound 1 µM",50.5%
same,"viability, T/C","second compound 0.1 µM, first compound 3.16 µM",54.6%
same,"viability, T/C","second compound 0.1 µM, first compound 10 µM",38.7%
same,"viability, T/C","second compound 0.316 µM, first compound 0.0316 µM",84%
same,"viability, T/C","second compound 0.316 µM, first compound 0.1 µM",77.6%
same,"viability, T/C","second compound 0.316 µM, first compound 0.316 µM",63.6%
same,"viability, T/C","second compound 0.316 µM, first compound 1 µM",57.1%
same,"viability, T/C","second compound 0.316 µM, first compound 3.16 µM",42.9%
same,"viability, T/C","second compound 0.316 µM, first compound 10 µM",37.4%
same,"viability, T/C","second compound 1 µM, first compound 0.0316 µM",64.5%
same,"viability, T/C","second compound 1 µM, first compound 0.1 µM",58.2%
same,"viability, T/C","second compound 1 µM, first compound 0.316 µM",58.9%
same,"viability, T/C","second compound 1 µM, first compound 1 µM",42.5%
same,"viability, T/C","second compound 1 µM, first compound 3.16 µM",43%
same,"viability, T/C","second compound 1 µM, first compound 10 µM",37.6%
same,"viability, T/C","second compound 3.16 µM, first compound 0.0316 µM",55.7%
same,"viability, T/C","second compound 3.16 µM, first compound 0.1 µM",59.6%
same,"viability, T/C","second compound 3.16 µM, first compound 0.316 µM",45.2%
same,"viability, T/C","second compound 3.16 µM, first compound 1 µM",45.9%
same,"viability, T/C","second compound 3.16 µM, first compound 3.16 µM",40.3%
same,"viability, T/C","second compound 3.16 µM, first compound 10 µM",35.4%
same,"viability, T/C","second compound 10 µM, first compound 0.0316 µM",45.4%
same,"viability, T/C","second compound 10 µM, first compound 0.1 µM",27.4%
same,"viability, T/C","second compound 10 µM, first compound 0.316 µM",42%
same,"viability, T/C","second compound 10 µM, first compound 1 µM",38.3%
same,"viability, T/C","second compound 10 µM, first compound 3.16 µM",36.3%
same,"viability, T/C","second compound 10 µM, first compound 10 µM",11%
